Entries after “also recorded” stand apart in the source; their conditions may differ.
What was measured:
[1] = system: MHC class I or II molecule; conditions: cited from earlier work
[2] = system: fixed Mgar (HLA-DR2+ve) APC presenting to T cells from DR2:MBP 82-100 transgenic mouse; assay: Antigen-presentation assay using an APIPS (fixed APC) with T cells from DR2:MBP82-100 transgenic mouse; format: cell-based; conditions: live or p-formaldehyde-fixed Mgar cells, 72 h
Protocol: Presentation of peptides to T cells isolated from DR2:MBP82-100 transgenic mouse was essentially as described above except APC were plated at 5×10^5 cells per well, T cells were plated at 1×10^5 cells per well, and incubation was allowed to proceed for 72 h prior to the addition of [^3H]-thymidine.
(§1) For any given epitope, there may exist one or more apitopes, capable of being presented to APC without further processing. The presence of apitopes within two regions of MBP is investigated by incubating live or p-formaldehyde-fixed Mgar (HLA-DR2+ve) cells are incubated with overlapping peptides in serum from MBP regions 77-100 (FIG. 12) and 125-148 (FIG. 13) or in serum alone. T cells were added and after 72 h (FIG. 12) or after 48 h (FIG. 13) the T cell proliferative response was measured by ^3H-thymidine uptake. For MBP 77-100, the T cells are isolated from a DR2:MBP 82-100 transgenic mouse, whereas for MBP 130-144 the T cell clone MS17:A3 is used.

[3] = system: MBP-specific T cell clones; assay: T cell clone (TCC) proliferation assay, fine mapping of MBP epitopes; format: cell-based, human; conditions: TCC from MS patients and healthy individuals; proliferative response
Protocol: MBP-specific T cell lines (TCL) are generated from 8 MS patients and 2 healthy control donors. PBMC from each subject are separated as described above and plated out at 1×10^6 cells/ml in 6-well plates in the presence of MBP (50 μg/ml); a portion of PBMC from each subject is regularly frozen and stored for subsequent restimulations. Seven days later the cells are fed with fresh medium containing 2% IL-2 (Lymphocult-HT; Biotest LTD., Birmingham, UK), and on day 12 of culture all cells are restimulated with antigen, IL-2 and irradiated (2500 Rad) autologous PBMC as a source of antigen presenting cells (APC), at a cell ratio of 1T cell:5 APC. Cells are expanded in IL-2 every 3-4 days, and on day 14 are restimulated with antigen, IL-2 and PBMC, as described above. On the day of the first restimulation cells are examined for specific proliferation to MBP. Briefly, 2×10^4 T cells and 1×10^5 irradiated autologous PBMC are cultured in triplicate, in 96-well round-bottom plates, in the presence of MBP. Cells are cultured for 2 days and pulsed with (^3H)-Thymidine at 0.4 μCi/well during the last 18 hours of the culture. Cells are then harvested as described above, and a TCL is considered to be MBP-specific with a δcpm>1000 and a SI>3.
Following 3 restimulation/expansion cycles TCL are cloned using PHA (Sigma, Poole, Dorset, UK)) in the presence of autologous irradiated PBMC as APC. T cells are plated under limiting dilution conditions at 0.1 cell/well, 0.3 cell/well and 1 cell/well and cultured in Terasaki plates (Nunc International, Costar) with 1×10^4 irradiated PBMC, 5 μg/ml PHA, and 2% IL-2. After 10-12 days, growth-positive wells are expanded onto 96-well round-bottom plates, using 1×10^5 irradiated PBMC, 5 μg/ml PHA and IL-2. Three days later wells are fed with fresh medium containing IL-2, and on day 7 the clones are expanded onto 48-well plates using 5×10^5 irradiated PBMC, PHA and IL-2; at this point clones are tested in proliferation assays for specific responses to MBP. MBP-specific clones are expanded a week later onto 24-well plates, using 1×10^6 irradiated PBMC with PHA or Dynabeads (Dynal, UK) and IL-2. The clones are maintained in 24-well plates using a 7-10 day restimulation/expansion cycle, essentially as described above. The ability of T cell clones (TCC) to recognize the panel of MBP peptides is tested by proliferation assays, as described above.
TCC are generated from 8 MS patients and 2 healthy individuals, and used to clarify the fine specificity of the peptide regions identified in the kinetic response assay. The specificity of each TCC is tested by its proliferative response to the panel of 15-mer peptides. Clone SD:A7 recognised region 1-24, and within this region this TCC responded to a.a. 5-19. Region 30-54 is recognised by 4 clones (MS49:D3, MS49:C8, MS49:A8, MS49:B6) and the epitope within this region is 30-44. […] Five clones (MS43:A7, MS41:B6, MS41:A2, MS41:C6, N5:8) recognize a.a. 83-99 which is contained in region 75-99. One patient produced TCC specific for a.a. 110-124 (MS60:A2, MS60:B3), contained within the 105-129 pool, and another TCC from the same patient is specific to 130-144 (MS60:E1), found within the 120-144 region. Five individuals produce clones which recognize epitopes within the region 135-159: MS60:F7, MS60:D1, MS59:F1 and N5:19 recognizes a.a. 140-154; MS57:A1 is specific to 140-149, and TCC MS17:A3 responds to sequence 130-144. […] Lastly, region 150-170 is recognized by 2 clones specific to a.a. 156-169.

[4] = system: draining lymph node cells; assay: Tolerance experiments with 89-101 and 87-96: lymph node cell recall proliferation; format: in vivo, Mice
Protocol: In order to test this possibility tolerance experiments are performed with the 89-101 and 87-96 peptides (FIGS. 15a and b).
Mice received 200 μg of peptide in PBS or PBS alone intraperitoneally on days −8, −6 and −4 prior to 100 μg of peptide in complete Freunds adjuvant on day 0. After 10 days, draining lymph node cells (6×10^5 per well) were cultured in X-Vivo 15 medium supplemented with 5×10^−5M 2-mercaptoethanol and […] L-glutamine with or without antigen for 72 hours. Cultures were pulsed for the final 16 hours with 0.5 μCi ^3H.thymidine and incorporation measured using a liquid scintillation counter. Results are expressed as means counts per minute for triplicate cultures.

[5] = system: fixed Mgar (HLA-DR2+ve) APC presenting to T cell clones; assay: Antigen-presentation assay using an APIPS (fixed APC) with human T cell clones; format: cell-based; conditions: for presentation by fixed APC without further processing (apitope): fixed vs live APC, T cell clone proliferation; for apitope within MBP region 125-148: live or p-formaldehyde-fixed Mgar cells, T cell clone MS17:A3, 48 h
Protocol: Presentation of the peptides to T cell clones is measured by proliferation. APC are fixed in 0.5% paraformaldehyde and plated at 1×10^5 cells per well of a 96-well tissue culture plate. T cells clones are plated at 2×10^4 cells per well in the presence of varying concentrations of peptide. After incubation for 48 h at 37° C., proliferation is measured by [^3H] thymidine incorporation over 16-20 h. Results are compared with the ability of T cells to respond to the epitope presented by live APC.
In order to investigate whether various MBP peptides are apitopes, their capacity to be presented to T-cells by fixed APC is investigated. Live or […] Mgar (HLA-DR2+ve) cells are pre-pulsed with the peptide in serum, or serum alone for 3.5 hours. Excess peptide is then removed from cells and the appropriate T cell clone added. The T cell proliferative response is measured by ^3H-thymidine uptake.
as §1

[6] = system: HLA-DQ6; assay: Antigen presentation assay, HLA-DQ6 transfected L-cells; format: cell-based, human
Description: MBP peptides 30-44, 130-144 and 139-153 were synthesized using L-amino acids and standard F-moc chemistry on an Abimed AMS 422 multiple peptide synthesiser.
L-cells transfected with either HLA-DQ6, HLA-DR2a or HLA-DR2b, or Mgar cells (EACC, Porton Down, UK) which express HLA-DQ, DP and DR were used as APCs.
T-cell clones MS 49:D3 and MS17:A2 were generated from MS patients and clone N5:19 was generated from a normal individual. All three clones were DR2 positive.
Antigen presenting cells were incubated with the various concentrations of peptide and the appropriate T-cells. Proliferation, and therefore activation, of the T-cells was measured by [^3H]-Thymidine incorporation, and expressed as the stimulation index (SI=corrected counts per minute (ccpm) culture containing peptide/ccpm culture without peptide).

Q: For “MBP 134-148: MBP peptide identified as apitope in WO 03/064464 (MASQKRPSQRHGSKY; UniProt P02686 134-148, looked up, fragment)”, which “identified as apitope in WO 03/064464” value [1] is on record?
A: apitopes

Q: Which “apitope within MBP region 77-100” value [2] does the source give for ENPVVHFFKNIVTPR [MBP 83-97] here?
A: shown to act as apitopes

Q: With “MBP 5-19: MBP 15-mer peptide a.a. 5-19 (AGKRELNAEKASTNS; UniProt P02686 5-19, looked up, fragment)” as the substance, how does the “T cell clones (TCC) recognising the peptide” value (shortened to “T cell clones”) [3] read?
A: responded

Q: For “MBP 87-96: MBP 10-mer peptide 87-96, contains the epitope 89-94 (SRPHLIRLFS; UniProt P02686 87-96, looked up, fragment)”, which “effect of peptide as tolerogen on recall responses after priming with 87-96” value ([4]; 200 μg i.p. days -8, -6, -4, priming 87-96 in CFA day 0, lymph node cells day 10) is on record?
A: suppressed recall responses to both 87-96 and 89-101

Q: What about the “in vitro recall response after priming with 87-96” value ([4]; PBS pre-treated mice, lymph node cells) of the same substance?
A: strong recall response

Q: Which “T cell clones” value [3] does the source give for “H-Pro-Arg-His-Arg-Asp-Thr-Gly-Ile-Leu-Asp-Ser-Ile-Gly-Arg-Phe-NH2 (H-PRHRDTGILDSIGRF-NH2) [MBP 30-44]” here?
A: 4

Q: What about the “presentation by fixed APC without further processing (apitope)” value [5] of the same substance?
A: shown to act as apitopes; also recorded: found to be apitopes; also recorded: can be presented by fixed APC without further processing

Q: What about the HLA-DQ6 binding [6] of the same substance?
A: HLA-DQ6 binding

Q: And the “proliferative response versus Mgar control cells” value ([6]; T-cell clone MS 49:D3, highest peptide concentration)?
A: 1.5 fold

Q: Which “apitope within MBP region 125-148” value [5] does the source give for DYKSAHKGFKGVDAQ [MBP 133-147] here?
A: shown to act as apitopes

Q: With “MBP 140-149: MBP 10-mer peptide 140-149 (PSQRHGSKYL; UniProt P02686 140-149, looked up, fragment)” as the substance, how does the “T cell clones” value [3] read?
A: specific

Q: For “MBP 60-74: MBP 15-mer peptide 60-74 (QDTAVTDSKRTADPK; UniProt P02686 60-74, looked up, fragment)”, which “T cell clones” value [3] is on record?
A: One

Q: With “MBP 136-150: MBP peptide identified as apitope in WO 03/064464 (SQKRPSQRHGSKYLA; UniProt P02686 136-150, looked up, fragment)” as the substance, how does the “identified as apitope in WO 03/064464” value [1] read?
A: apitopes

Q: Which “T cell clones” value [3] does the source give for “MBP 156-169: MBP a.a. 156-169 recognised by 2 clones; possibly the same as 156-170 (DHARHGFLPRHRDT; UniProt P02686 156-169, looked up, fragment)” here?
A: 2

Q: For RASDYKSAHKGFKGV [MBP 130-144], which “T cell clones” value [3] is on record?
A: responds

Q: And the “presentation by fixed APC without further processing (apitope)” value [5]?
A: shown to act as apitopes; also recorded: found to be apitopes; also recorded: can be presented by fixed APC without further processing

Q: With “MBP 135-149: MBP peptide identified as apitope in WO 03/064464 (ASQKRPSQRHGSKYL; UniProt P02686 135-149, looked up, fragment)” as the substance, how does the “identified as apitope in WO 03/064464” value [1] read?
A: apitopes

Q: What does the source list for “MBP 110-124: myelin basic protein peptide, residues 110-124 (RPSESDELQTIQEDS)”?
A: T cell clones (TCC) recognising the peptide [3]: TCC specific; presentation by fixed APC without further processing (apitope) [5]: shown to act as apitopes; also recorded: found to be apitopes; also recorded: can be presented by fixed APC without further processing

Q: Which “presentation by fixed APC without further processing (apitope)” value [5] does the source give for TQDENPVVHFFKNIV [MBP 80-94] here?
A: found to be apitopes

Q: And the “apitope within MBP region 77-100” value [2]?
A: shown to act as apitopes

Q: With QDENPVVHFFKNIVT [MBP 81-95] as the substance, how does the “apitope within MBP region 77-100” value [2] read?
A: shown to act as apitopes

Q: Which “presentation by fixed APC without further processing (apitope)” value [5] does the source give for “MBP 156-170: myelin basic protein peptide, residues 156-170; epitope but not apitope (DHARHGFLPRHRDTG)” here?
A: an epitope but not an apitope; also recorded: requires further processing for presentation to T cells

Q: With “MBP 137-151: MBP peptide identified as apitope in WO 03/064464 (QKRPSQRHGSKYLAT; UniProt P02686 137-151, looked up, fragment)” as the substance, how does the “identified as apitope in WO 03/064464” value [1] read?
A: apitopes

Q: For SDYKSAHKGFKGVDA [MBP 132-146], which “apitope within MBP region 125-148” value [5] is on record?
A: shown to act as apitopes

Q: With MPVVHFFKNIVTPRT [MBP 84-98] as the substance, how does the “apitope within MBP region 77-100” value [2] read?
A: shown to act as apitopes

Q: Which “apitope within MBP region 77-100” value [2] does the source give for DENPVVHFFKNIVTP [MBP 82-96] here?
A: shown to act as apitopes

Q: Which “identified as apitope in WO 03/064464” value [1] does the source give for “MBP 138-152: MBP peptide identified as apitope in WO 03/064464 (KRPSQRHGSKYLATA; UniProt P02686 138-152, looked up, fragment)” here?
A: apitopes

Q: Which “apitope within MBP region 125-148” value [5] does the source give for “H-Ala-Ser-Asp-Tyr-Lys-Ser-Ala-His-Lys-Gly-Phe-Lys-Gly-Val-Asp-NH2 (H-ASDYKSAHKGFKGVD-NH2) [MBP 131-145]” here?
A: shown to act as apitopes

Q: What about the HLA-DQ6 binding [6] of the same substance?
A: HLA-DQ6 binding

Reference: US8961986B2, “Peptide composition” (Apitope Technology (Bristol) Limited, priority 2000, dated 2015)
